These results are taken from EP0628039B1, “2,3,4,5-TETRAHYDRO-1H-3-BENZAZEPINES AND PHARMACEUTICALLY ACCEPTABLE ACID ADDITION SALTS THEREOF” (NOVO NORDISK A/S, priority 1992, dated 1993).

Molecules are shown by their SMILES. Read-outs that look alike come from different tables or passages of the source.

The target in the assay is T1, dopamine D1 receptor (Rattus norvegicus, UniProt P18901).
T1 construct: homogenates from rat striatum; from tissue; host or cells: rat striatum homogenate
Description: Binding to dopamine D1 receptor in homogenates from rat striatum.

T1 sequence (P18901 whole entry): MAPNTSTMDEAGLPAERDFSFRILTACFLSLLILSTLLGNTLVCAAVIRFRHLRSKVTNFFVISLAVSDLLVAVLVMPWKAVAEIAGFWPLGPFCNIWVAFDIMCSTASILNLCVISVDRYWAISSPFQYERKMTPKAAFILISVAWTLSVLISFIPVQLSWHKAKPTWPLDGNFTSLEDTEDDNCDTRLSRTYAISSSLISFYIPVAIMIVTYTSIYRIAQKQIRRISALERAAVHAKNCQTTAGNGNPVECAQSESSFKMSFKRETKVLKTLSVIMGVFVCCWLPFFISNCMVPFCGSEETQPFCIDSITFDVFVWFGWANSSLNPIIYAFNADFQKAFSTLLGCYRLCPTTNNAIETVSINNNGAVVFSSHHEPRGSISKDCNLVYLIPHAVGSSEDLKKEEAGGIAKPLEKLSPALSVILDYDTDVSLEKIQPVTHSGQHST

`CN1CCc2cc(Cl)c(O)cc2C(c2cc(Br)cc3c2OCC3)C1` (single isomer, unassigned; (+)) [Example 1, (+) 8-Chloro-5-(5-bromo-2,3-dihydrobenzofuran-7-yl)-7-hydroxy-3-methyl-2,3,4,5-tetrahydro-1H-3-benzazepine] showed a 50% inhibitory concentration (IC50) of 0.7 nM. Turning to `CN1CCc2cc(Cl)c(O)cc2C(c2c(Cl)c(Cl)cc3c2OCC3)C1` (single isomer, unassigned; (+)) [Example 3, (+)8-Chloro-5-(5,6-dichloro-2,3-dihydrobenzofuran-7-yl)-7-hydroxy-3-methyl-2,3,4,5-tetrahydro-1H-3-benzazepine], the IC50 (homogenates from rat striatum, read-out: IC50 (nM) Dopamine D1 receptor) amounted to 0.9 nM.

The term IC50 denotes the concentration needed to halve the response being measured.
